Experimental data published in US7138361B2, “Herbicidal heterocycles” (E. I. du Pont de Nemours and Company, priority 2000, dated 2006).

Columns and labels:
Assay type in all cases: in vivo
Nightshade = assay: Test C preemergence
Sunflower [1] = assay: Test C preemergence; settings: Rate 62 g/ha; scale 0 to 100, 0 no effect, 100 complete control
[2] = system: Surinam grass (Brachiaria decumbens); assay: Test C preemergence
Summary of the method: (§1)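 Preemergence: seeds sown then treated. Postemergence: plants 2–18 cm, 1- to 4-leaf. Both with surfactant-containing solvent formulation; visual injury scored 0–100 after 12–14 d.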

[3] = system: bermudagrass (Cynodon dactylon); assay: Test C preemergence
Summary of the method: as §1

[4] = system: cocklebur (Xanthium strumarium); assay: Test C preemergence; settings: preemergence
Summary of the method: as §1

corn (Zea mays) = assay: Test C preemergence
Summary of the method: as §1

[5] = system: crabgrass (Digitaria sanguinalis); assay: Test C preemergence
Summary of the method: as §1

[6] = system: giant foxtail (Setaria faberii); assay: Test C preemergence
Summary of the method: as §1

[7] = system: goosegrass (Eleusine indica); assay: Test C preemergence
Summary of the method: as §1

[8] = system: johnsongrass (Sorghum halepense); assay: Test C preemergence
Summary of the method: as §1

kochia (Kochia scoparia) = assay: Test C preemergence
Summary of the method: as §1

[9] = system: lambsquarters (Chenopodium album); assay: Test C preemergence
Summary of the method: as §1

[10] = system: morningglory (Ipomoea hederacea); assay: Test C preemergence
Summary of the method: as §1

[11] = system: pigweed (Amaranthus retroflexus); assay: Test C preemergence
Summary of the method: as §1

soybean (Glycine max) = assay: Test C preemergence
Summary of the method: as §1

[12] = system: velvetleaf (Abutilon theophrasti); assay: Test C preemergence
Summary of the method: as §1

[13] = system: woolly cupgrass (Eriochloa villosa); assay: Test C preemergence
Summary of the method: as §1

[14] = system: yellow nutsedge (Cyperus esculentus); assay: Test C preemergence
Summary of the method: as §1

[15] = system: barnyardgrass (Echinochloa crus-galli); assay: Test C flooded paddy test; settings: for Barnyardgrass plant response rating: Flooded Paddy, scale 0 to 100, 0 no effect, 100 complete control; for Plant response rating, Barnyardgrass: flooded paddy test, scale 0 to 100 (0 no effect, 100 complete control)
Summary of the method: (§2)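 Visual ratings (0 = no effect, 100 = complete control) were made 12–14 days after treatment, relative to greenhouse controls. Plants in the flooded paddy test were rice, smallflower flatsedge, duck salad and barnyardgrass, treated at the 2-leaf stage.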

[16] = system: duck salad (Heteranthera limosa); assay: Test C flooded paddy test; settings: for Ducksalad plant response rating: Flooded Paddy, scale 0 to 100, 0 no effect, 100 complete control; for Plant response rating, Ducksalad: flooded paddy test, scale 0 to 100 (0 no effect, 100 complete control)
Summary of the method: as §2

[17] = system: smallflower flatsedge (Cyperus difformis); assay: Test C flooded paddy test; settings: for Flatsedge plant response rating: Flooded Paddy, scale 0 to 100, 0 no effect, 100 complete control; for Plant response rating, Flatsedge: flooded paddy test, scale 0 to 100 (0 no effect, 100 complete control)
Summary of the method: as §2

Sunflower [18] = assay: Test C preemergence; settings: Rate 250 g/ha, visual evaluation after 12 to 14 days
[19] = Rate 62 g/ha, scale 0 to 100, 0 no effect, 100 complete control
[20] = Rate 125 g/ha, scale 0 to 100, 0 no effect, 100 complete control
[21] = preemergence, Rate 31 g/ha, scale 0 to 100
[22] = preemergence, Rate 250 g/ha, visual evaluation after 12 to 14 days
[23] = preemergence, Rate 125 g/ha, scale 0 to 100, 0 no effect, 100 complete control

SMILES: O=C1C(n2ccc(C3CC3)n2)OCN1c1cccc(C(F)(F)F)c1 (centres unmarked) [Compound 28]
- Plant response rating, Nightshade (Nightshade; Rate 31 g/ha, scale 0 to 100): 0
- Plant response rating, Nightshade (Nightshade; [19]): 0
- Plant response rating, Nightshade (Nightshade; [20]): 70
- Plant response rating, Sunflower (Sunflower [1]): 20
- Plant response rating, Surinam grass [2, 19]: 20
- Plant response rating, Surinam grass [2, 21]: 20
- Plant response rating (0 to 100), Surinam grass [2, 22]: 60
- Plant response rating, Surinam grass [2, 23]: 60
- Plant response rating, Bermudagrass [3, 19]: 50
- Plant response rating, Bermudagrass [3, 21]: 20
- Plant response rating (0 to 100 where 0 is no effect and 100 is complete control), Bermudagrass [3, 22]: 100
- Plant response rating, Bermudagrass [3, 23]: 100
- Plant response rating, Cocklebur ([4]; Rate 31 g/ha, scale 0 to 100): 0
- Plant response rating (0 to 100), Cocklebur ([4]; Rate 250 g/ha, visual evaluation after 12 to 14 days): 0
- Plant response rating, Cocklebur [4, 20]: 0
- Plant response rating, Corn (corn (Zea mays); [19]): 0
- Plant response rating, Corn (corn (Zea mays); [21]): 0
- Plant response rating (0 to 100), Corn (corn (Zea mays); [22]): 30
- Plant response rating, Corn (corn (Zea mays); [23]): 30
- Plant response rating, Crabgrass [5, 19]: 90
- Plant response rating, Crabgrass [5, 21]: 90
- Plant response rating (0 to 100), Crabgrass [5, 22]: 100
- Plant response rating, Crabgrass [5, 23]: 100
- Plant response rating, Foxtail, Giant [6, 19]: 0
- Plant response rating, Foxtail, Giant [6, 21]: 0
- Plant response rating (0 to 100), Foxtail, Giant [6, 22]: 0
- Plant response rating, Foxtail, Giant [6, 23]: 100
- Plant response rating, Goosegrass [7, 19]: 80
- Plant response rating, Goosegrass [7, 21]: 40
- Plant response rating (0 to 100), Goosegrass [7, 22]: 100
- Plant response rating, Goosegrass [7, 23]: 100
- Plant response rating, Johnsongrass [8, 19]: 50
- Plant response rating, Johnsongrass [8, 21]: 0
- Plant response rating (0 to 100), Johnsongrass [8, 22]: 70
- Plant response rating, Johnsongrass [8, 23]: 70
- Plant response rating, Kochia (kochia (Kochia scoparia); [19]): 40
- Plant response rating, Kochia (kochia (Kochia scoparia); [21]): 0
- Plant response rating (0 to 100), Kochia (kochia (Kochia scoparia); [22]): 100
- Plant response rating, Kochia (kochia (Kochia scoparia); [23]): 100
- Plant response rating, Lambsquarters [9, 19]: 100
- Plant response rating, Lambsquarters [9, 21]: 100
- Plant response rating (0 to 100), Lambsquarters [9, 22]: 100
- Plant response rating, Lambsquarters [9, 23]: 100
- Plant response rating, Morningglory [10, 19]: 0
- Plant response rating, Morningglory [10, 21]: 0
- Plant response rating (0 to 100), Morningglory [10, 22]: 0
- Plant response rating, Morningglory [10, 23]: 0
- Plant response rating, Pigweed [11, 19]: 70
- Plant response rating, Pigweed [11, 21]: 70
- Plant response rating (0 to 100), Pigweed [11, 22]: 50
- Plant response rating, Pigweed [11, 23]: 100
- Plant response rating, Soybean (soybean (Glycine max); [19]): 0
- Plant response rating, Soybean (soybean (Glycine max); [21]): 0
- Plant response rating (0 to 100), Soybean (soybean (Glycine max); [22]): 40
- Plant response rating, Soybean (soybean (Glycine max); [23]): 40
- Plant response rating, Velvetleaf [12, 19]: 0
- Plant response rating, Velvetleaf [12, 21]: 0
- Plant response rating (0 to 100), Velvetleaf [12, 22]: 0
- Plant response rating, Velvetleaf [12, 23]: 0
- Plant response rating, Cupgrass, Woolly [13, 19]: 50
- Plant response rating, Cupgrass, Woolly [13, 21]: 30
- Plant response rating (0 to 100), Cupgrass, Woolly [13, 22]: 100
- Plant response rating, Cupgrass, Woolly [13, 23]: 70
- Plant response rating, Nutsedge [14, 19]: 50
- Plant response rating, Nutsedge [14, 21]: 50
- Plant response rating (0 to 100), Nutsedge [14, 22]: 50
- Plant response rating, Nutsedge [14, 23]: 50
- Barnyardgrass plant response rating ([15]; Rate 250 g/ha): 40
- Barnyardgrass plant response rating ([15]; Rate 500 g/ha): 70
- Plant response rating, Barnyardgrass ([15]; Rate 62 g/ha): 0
- Plant response rating, Barnyardgrass ([15]; Rate 125 g/ha): 0
- Ducksalad plant response rating ([16]; Rate 250 g/ha): 70
- Ducksalad plant response rating ([16]; Rate 500 g/ha): 100
- Plant response rating, Ducksalad ([16]; Rate 62 g/ha): 0
- Plant response rating, Ducksalad ([16]; Rate 125 g/ha): 0
- Flatsedge plant response rating ([17]; Rate 250 g/ha): 100
- Flatsedge plant response rating ([17]; Rate 500 g/ha): 100
- Plant response rating, Flatsedge ([17]; Rate 62 g/ha): 80
- Plant response rating, Flatsedge ([17]; Rate 125 g/ha): 80
- Plant response rating (0 to 100), Sunflower (Sunflower [18]): 40
